Assay results from patent publication US9701664B2, “Fused 1,4-dihydrodioxin derivatives as inhibitors of heat shock transcription factor 1” (Cancer Research Technology Limited, priority 2013, dated 2017).

Tested on: HSP72 in U2OS cells
Experiment: Cell-based ELISA (Cellisa) assay, U2OS cells: inhibition of 17-AAG-induced HSP72
Details: U2OS cells (Examples 1-168)
Procedure: U2OS cells (5-8×10^4 cells/mL) or SK-OV-3 cells (5-8×10^4 cells/mL) were seeded into 96-well plates and incubated at 37° C. for 48 h. Compounds were then added at a range of concentrations and incubated for 1 h before addition of 17-AAG (250 nM). Cells were then incubated for 18 h. The medium was removed washed 2× with PBS and cells were then fixed with fixing solution (4% paraformaldehyde, 0.3% TritonX-100 in PBS) for 30 min at 4° C. The plates were then washed 2× with PBS before blocking with 5% milk for 30 min at 37° C. After washing the plates 4× with 0.1% Tween-20/deionised water, HSP72 antibody (SPA-810, Enzo Life) was added for 1.5 h at 37° C. Following 4× washes, the plates were incubated with europium-labelled anti-mouse antibody (0.6 ug/ml) in Delfia assay buffer (Perkin Elmer) for 1 h at 37° C. After washing the plates, Delfia enhancement solution was added, shaken for 10 min before reading in the Envision plate reader (Perkin-Elmer) with excitation at 340 nm and emission at 615 nm. The plates were washed again before protein determination using the bicinchoninic acid assay (BCA assay, Pierce Biotechnology). The europium counts were normalised for the amount of protein in each well. The 50% inhibitory concentration value of the compound was then calculated.

Compound	IC50 (Homo sapiens)	IC50
Cc1ccc(NC(=O)c2ccc3c(c2)OCCO3)cc1NC(=O)c1ccnc(N2CCOCC2)c1 [Example 98, N-(5-(2,3-dihydrobenzo[b][1,4]dioxine-6-carboxamido)-2-methylphenyl)-2-morpholinoisonicotinamide]	2660 nM	
COCCOc1cc(C(=O)Nc2cc(NC(=O)c3ccc4c(c3)OCCO4)ccc2C)cc2cccnc12 [Example 160, N-(5-(2,3-dihydrobenzo[b][1,4]dioxine-6-carboxamido)-2-methylphenyl)-8-(2-methoxyethoxy)quinoline-6-carboxamide]	383 nM	
Cc1ccc(NC(=O)c2ccc3c(c2)OCCO3)cc1NC(=O)c1ccc2c(c1)CCNC2 [Example 88, N-(5-(2,3-dihydrobenzo[b][1,4]dioxine-6-carboxamido)-2-methylphenyl)-1,2,3,4-tetrahydroisoquinoline-6-carboxamide]	770 nM	
Cc1ccc(NC(=O)c2ccc3c(c2)OCCO3)cc1NC(=O)c1ccc2c(c1)CC[C@H](C)N2 [Example 154, (S)—N-(5-(2,3-dihydrobenzo[b][1,4]dioxine-6-carboxamido)-2-methylphenyl)-2-methyl-1,2,3,4-tetrahydroquinoline-6-carboxamide]	145 nM	
CCC(=O)NCCNc1ccc2cc(C(=O)Nc3cc(NC(=O)c4ccc5c(c4)OCCO5)ccc3C)ccc2n1 [Example 83, N-(5-(2,3-dihydrobenzo[b][1,4]dioxine-6-carboxamido)-2-methylphenyl)-2-((2-propionamidoethyl)amino)quinoline-6-carboxamide]	161 nM	
Cc1cc(NCCCN(C)C)c2cc(C(=O)Nc3cc(NC(=O)c4ccc5c(c4)OCCO5)ccc3C)ccc2n1 [Example 111, N-(5-(2,3-dihydrobenzo[b][1,4]dioxine-6-carboxamido)-2-methylphenyl)-4-(3-(dimethylamino)propylamino)-2-methylquinoline-6-carboxamide]	1840 nM	
Cc1ccc(NC(=O)c2ccc3c(c2)OCCO3)cc1NC(=O)c1ccc2c(c1)CC[C@@H](C)N2 [Example 155, (R)—N-(5-(2,3-dihydrobenzo[b][1,4]dioxine-6-carboxamido)-2-methylphenyl)-2-methyl-1,2,3,4-tetrahydroquinoline-6-carboxamide]	227 nM	
Cc1ccc2cc(C(=O)Nc3cc(NC(=O)c4ccc5c(c4)OCCCO5)ccc3C)ccc2n1 [Example 132, N-(5-(3,4-dihydro-2H-benzo[b][1,4]dioxepine-7-carboxamido)-2-methylphenyl)-2-methylquinoline-6-carboxamide]	226 nM	
Cc1ccc(NC(=O)c2ccc3c(c2)OCCO3)cc1NC(=O)c1ccc2nc(Cl)ccc2c1 [Example 12, 2-chloro-N-(5-(2,3-dihydrobenzo[b][1,4]dioxine-6-carboxamido)-2-methylphenyl)quinoline-6-carboxamide]	51 nM	
Cc1cc(NCCN2CCOCC2)c2cc(C(=O)Nc3cc(NC(=O)c4ccc5c(c4)OCCO5)ccc3C)ccc2n1 [Example 118, N-(5-(2,3-dihydrobenzo[b][1,4]dioxine-6-carboxamido)-2-methylphenyl)-2-methyl-4-(2-morpholinoethylamino)quinoline-6-carboxamide]	618 nM	
Cc1ccc(NC(=O)c2ccc3c(c2)OCCO3)cc1NC(=O)c1ccc2c(c1)CCN2C(=O)OC(C)(C)C [Example 30, tert-butyl 5-((5-(2,3-dihydrobenzo[b][1,4]dioxine-6-carboxamido)-2-methylphenyl)carbamoyl)indoline-1-carboxylate]	507 nM	
CCC(=O)NCCOc1ccc2cc(C(=O)Nc3cc(NC(=O)c4ccc5c(c4)OCCO5)ccc3C)ccc2n1 [Example 81, N-(5-(2,3-dihydrobenzo[b][1,4]dioxine-6-carboxamido)-2-methylphenyl)-2-(2-propionamidoethoxy)quinoline-6-carboxamide]	100 nM	
Cc1ccc(NC(=O)c2ccc3c(c2)OCCO3)cc1NC(=O)c1cc(N(C)CCN(C)C)c2ncccc2c1 [Example 162, N-(5-(2,3-dihydrobenzo[b][1,4]dioxine-6-carboxamido)-2-methylphenyl)-8-((2-(dimethylamino)ethyl)(methyl)amino)quinoline-6-carboxamide]	984 nM	
Cc1ccc(NC(=O)c2ccc3c(c2)OCCO3)cc1NC(=O)c1ccc2nc(C(C)O)ccc2c1 (stereo not drawn) [Example 142, N-(5-(2,3-dihydrobenzo[b][1,4]dioxine-6-carboxamido)-2-methylphenyl)-2-(1-hydroxyethyl)quinoline-6-carboxamide]	51 nM	
Cc1ccc2cc(C(=O)Nc3cc(NC(=O)c4cc5c(cc4F)OCCO5)ccc3C)ccc2n1 [Example 130, N-(5-(7-fluoro-2,3-dihydrobenzo[b][1,4]dioxine-6-carboxamido)-2-methylphenyl)-2-methylquinoline-6-carboxamide]	156 nM	
Cc1ccc(NC(=O)c2ccc3c(c2)OCCO3)cc1NC(=O)c1ccc2ncccc2c1 [Example 1, N-(5-(2,3-dihydrobenzo[b][1,4]dioxine-6-carboxamido)-2-methylphenyl)quinoline-6-carboxamide]	5 nM	
CCNc1ccc(C(=O)Nc2cc(NC(=O)c3ccc4c(c3)OCCO4)ccc2C)cn1 [Example 102, N-(5-(2,3-dihydrobenzo[b][1,4]dioxine-6-carboxamido)-2-methylphenyl)-6-(ethylamino)nicotinamide]	835 nM	
N-(5-(2,3-dihydrobenzo[b][1,4]dioxine-6-carboxamido)-2-methyl)phenyl)-2-methyl-4-(2-(pyrrolidin-1-yl)ethoxy)quinoline-6-carboxamide [Example 120]		2730 nM
Cc1ccc(NC(=O)c2ccc3c(c2)OCCO3)cc1NC(=O)c1ccc2c(c1)CCC(CN(C)C(=O)OC(C)(C)C)N2 (stereo not drawn) [Example 85, tert-butyl ((6-((5-(2,3-dihydrobenzo[b][1,4]dioxine-6-carboxamido)-2-methylphenyl)carbamoyl)-1,2,3,4-tetrahydroquinolin-2-yl)methyl)(methyl)carbamate]	1140 nM	
Cc1ccc(NC(=O)c2ccc3c(c2)OCCO3)cc1NC(=O)c1ccc(OCc2cncs2)cc1 [Example 20, N-(4-methyl-3-(4-(thiazol-5-ylmethoxy)benzamido)phenyl)-2,3-dihydrobenzo[b][1,4]dioxine-6-carboxamide]	1480 nM	
Cc1cc(NCCN2CCCC2)c2cc(C(=O)Nc3cc(NC(=O)c4ccc5c(c4)OCCO5)ccc3C)ccc2n1 [Example 117, N-(5-(2,3-dihydrobenzo[b][1,4]dioxine-6-carboxamido)-2-methylphenyl)-2-methyl-4-(2-(pyrrolidin-1-yl)ethylamino)quinoline-6-carboxamide]	635 nM	
Cc1ccc(NC(=O)c2ccc3c(c2)OCCO3)cc1NC(=O)c1cnc2cccc(CCO)c2c1 [Example 157, N-(5-(2,3-dihydrobenzo[b][1,4]dioxine-6-carboxamido)-2-methylphenyl)-5-(2-hydroxyethyl)quinoline-3-carboxamide]	221 nM	
Cc1ccc2cc(C(=O)Nc3cc(NC(=O)c4ccc5c(c4)OCCO5)ccc3C)ccc2c1 [Example 108, N-(4-methyl-3-(6-methyl-2-naphthamido)phenyl)-2,3-dihydrobenzo[b][1,4]dioxine-6-carboxamide]	483 nM	
Cc1ccc(NC(=O)c2ccc3c(c2)OCCO3)cc1NC(=O)c1ccc2c(c1)CCC(C)N2C (stereo not drawn) [Example 159, N-(5-(2,3-dihydrobenzo[b][1,4]dioxine-6-carboxamido)-2-methylphenyl)-1,2-dimethyl-1,2,3,4-tetrahydroquinoline-6-carboxamide]	345 nM	
CCc1ccc2cc(C(=O)Nc3cc(NC(=O)c4ccc5c(c4)OCCO5)ccc3C)ccc2n1 [Example 77, N-(5-(2,3-dihydrobenzo[b][1,4]dioxine-6-carboxamido)-2-methylphenyl)-2-ethylquinoline-6-carboxamide]	26 nM	
Cc1ccc(NC(=O)c2ccc3c(c2)OCCO3)cc1NC(=O)c1ccc(Nc2cccc(I)c2)nc1 [Example 38, N-(5-(2,3-dihydrobenzo[b][1,4]dioxine-6-carboxamido)-2-methylphenyl)-6-((3-iodophenyl)amino)nicotinamide]	41 nM	
COC(C)c1ccc2cc(C(=O)Nc3cc(NC(=O)c4ccc5c(c4)OCCO5)ccc3C)ccc2n1 (stereo not drawn) [Example 153, N-(5-(2,3-dihydrobenzo[b][1,4]dioxine-6-carboxamido)-2-methylphenyl)-2-(1-methoxyethyl)quinoline-6-carboxamide]	140 nM	
CNCC1CCc2cc(C(=O)Nc3cc(NC(=O)c4ccc5c(c4)OCCO5)ccc3C)ccc2N1 (stereo not drawn) [Example 86, N-(5-(2,3-dihydrobenzo[b][1,4]dioxine-6-carboxamido)-2-methylphenyl)-2-((methylamino)methyl)-1,2,3,4-tetrahydroquinoline-6-carboxamide]	195 nM	
Cc1ccc(NC(=O)c2ccc3c(c2)OCCO3)cc1NC(=O)c1ccc(N)nc1 [Example 104, 6-amino-N-(5-(2,3-dihydrobenzo[b][1,4]dioxine-6-carboxamido)-2-methylphenyl)nicotinamide]	482 nM	
COc1cccc(C(=O)Nc2cc(NC(=O)c3ccc4c(c3)OCCO4)ccc2C)c1 [Example 40, N-(3-(3-methoxybenzamido)-4-methylphenyl)-2,3-dihydrobenzo[b][1,4]dioxine-6-carboxamide]	1160 nM	
